Assay results reported in patent US20080139664A1, “ANTI-GLYCATION AGENTS FOR PREVENTING AGE-, DIABETES-, AND SMOKING-RELATED COMPLICATIONS” (NATIONAL RESEARCH COUNCIL OF CANADA, priority 2001, published 2008).
pIC50: −log10 of the molar value.

Experiments:
[1] = tested on: bovine serum albumin (BSA); assay: Fluorescamine assay of free primary amino groups of BSA incubated with D-ribose; format: biochemical; details: for Unreacted amino group: free primary amino group on BSA after 5 days at 37° C., agent at 16.8 times IC50, 64% without agent
Description: Fluorescamine assay (Yeboah F. et al., J. Agric. Food Chem. 48, 2766-2774 (2000)) was performed on incubated mixtures of BSA and D-ribose, with or without the identified anti-glycation agents. The mixtures contained BSA (0.075 mM protein concentration or 4.53 mM of Lys residue concentration) and D-ribose (50 mM). […] The fluorescamine assay determines the number of free lysine residues of BSA. In this experiment, the final volume of the incubation mixtures was 10 mL and the incubation time was 5 days at 37° C. Prior to the fluorescamine assay, the proteins were isolated by reverse phase HPLC. The protein content was determined using the Bio-Rad protein determination reagent (Bradford method). The fluorescamine assay was done in triplicate.

[2] = tested on: lysozyme; assay: ESI-MS of lysozyme glycoforms after incubation with D-ribose; details: 37° C., 5 days; for Peak area as % of total area of all glycoforms, 14,569: lysozyme + 2D-ribose − 2H2O (14,569 Da); for Peak area as % of total area of all glycoforms, 14,551: lysozyme + 2D-ribose − 3H2O (14,551 Da); for Peak area as % of total area of all glycoforms, 14,533: lysozyme + 2D-ribose − 5H2O (14,533 Da); for Peak area as % of total area of all glycoforms, 14,515: lysozyme + 2D-ribose − 6H2O (14,515 Da); for Peak area as % of total area of all glycoforms, 14,419: lysozyme + D-ribose − 2H2O (14,419 Da); for Peak area as % of total area of all glycoforms, 14,401: lysozyme + D-ribose − 3H2O (14,401 Da); for Peak area as % of total area of all glycoforms, 14,437: lysozyme + D-ribose − H2O (14,437 Da); for Peak area as % of total area of all glycoforms, 14,496: lysozyme + D-ribose − H2O with one carboxymethylated Lys residue (14,496 Da); for Peak area as % of total area of all glycoforms, 14,364: lysozyme with one carboxymethylated Lys residue (14,364 Da); for Peak area as % of total area of all glycoforms, 14,305: unmodified lysozyme (14,305 Da);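 on all read-outs here: lysozyme incubated with D-ribose, with or without anti-glycation agents, then separated by reversed-phase HPLC and analysed by electrospray mass spectrometry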
[3] = tested on: bovine serum albumin (BSA); assay: Maillard fluorescence-based assay of AGEs formation, IC50 determination (BSA + D-ribose); details: inhibition of Maillard fluorescence development; 0.075 mM BSA, 50 mM D-ribose, 37° C., 5 days
[4] = tested on: bovine serum albumin (BSA); assay: SDS-PAGE assessment of BSA-BSA protein cross-links; format: biochemical; details: mixtures further incubated for 4 weeks; further: key: ++: strongly suppressed; +: suppressed; −: no suppression; *: moderate acceleration of the cross-linking
Description: Additionally, protein cross-links were semi-quantitatively assessed by SDS PAGE gel chromatography.
Protein-protein cross-links were characterized by SDS-PAGE. The incubation mixtures used for determination of the amino groups were further incubated for 4 weeks. An aliquot of the solution was applied to Pharmacia SDS FAST gel and the proteins were stained with Coomassie blue.

| Compound | Unreacted amino group [1] | Peak area as % of total area of all glycoforms, 14,569 [2] | Peak area as % of total area of all glycoforms, 14,551 [2] | Peak area as % of total area of all glycoforms, 14,533 [2] | Peak area as % of total area of all glycoforms, 14,515 [2] | Peak area as % of total area of all glycoforms, 14,419 [2] | Peak area as % of total area of all glycoforms, 14,401 [2] | Peak area as % of total area of all glycoforms, 14,437 [2] | Peak area as % of total area of all glycoforms, 14,496 [2] | Peak area as % of total area of all glycoforms, 14,364 [2] | Peak area as % of total area of all glycoforms, 14,305 [2] | pIC50 [3] | Suppression of BSA-BSA cross-links [4] | effect on protection of amino groups of BSA ([1]; in words) |
| --- | --- | --- | --- | --- | --- | --- | --- | --- | --- | --- | --- | --- | --- | --- |
| CNCC(=O)c1ccc(O)c(O)c1 [Adrenalone] | 45% | 3.3% | 1.3% | 1.3% | 1.5% | 2.5% | 1.7% | 17.2% | 2.2% | 4.8% | 59.3% | 4.24 | – | – |
| Oc1cc(O)c2c(c1)O[C@H](c1ccc(O)c(O)c1)[C@@H](O)C2 [(+)-Catechin] | 66% | 2.8% | 1.4% | 1.2% | 0.0% | 4.0% | 0.0% | 19.7% | 0.0% | 2.0% | 68.9% | 4.72 | – | – |
| O=c1cc(-c2ccccc2O)oc2cc(O)cc(O)c12 [5,7,2′-Trihydroxyflavone] | 53% | 4.3% | 4.8% | 2.3% | 1.7% | 9.3% | 1.6% | 19.8% | 0.0% | 5.8% | 46.7% | 3.66 | – | – |
| NC[C@@H](O)c1ccc(O)c(O)c1 [L-Norepinephrine] | 70% | 1.2% | 0.0% | 0.0% | 0.0% | 2.4% | 2.3% | 12.0% | 0.9% | 5.3% | 75.9% | – | + | – |
| Oc1cc(O)c2c(c1)O[C@H](c1ccc(O)c(O)c1)[C@H](O)C2 [(−)-Epicatechin] | 57% | 1.7% | 0.0% | 0.0% | 0.0% | 2.6% | 0.0% | 17.6% | 0.0% | 1.8% | 76.3% | 4.24 | – | – |
| CC(C)NC[C@H](O)c1ccc(O)c(O)c1 [L-Isoproterenol] | 73% | 2.2% | 0.8% | 1.0% | 0.9% | 2.3% | 2.5% | 16.5% | 1.4% | 5.3% | 67.0% | – | + | protect the amino group against glycation |
| CC(C)NC[C@@H](O)c1ccc(O)c(O)c1 [D-Isoproterenol] | 68% | 1.4% | 0.2% | 0.5% | 0.0% | 1.8% | 0.8% | 13.7% | 0.6% | 4.7% | 76.2% | – | + | – |
| O=c1c(O)cccc2cc(O)c(O)c(O)c12 [Purpurogallin] | 31% | 3.6% | 1.2% | 0.9% | 0.0% | 4.1% | 0.0% | 22.2% | 0.0% | 0.0% | 67.9% | 4.12 | – | – |
| Cc1cc(N)c2ccccc2c1O [Vitamin K5] | 51% | 1.6% | 1.3% | 1.6% | 0.0% | 3.3% | 0.0% | 12.2% | 0.0% | 4.9% | 75.1% | 4.05 | – | – |
| O=c1cc(-c2cc(O)c(O)c(O)c2)oc2cc(O)cc(O)c12 [5,7,3′,4′,5′-Pentahydroxyflavone] | 54% | 4.3% | 4.3% | 1.7% | 0.7% | 8.6% | 0.2% | 20.6% | 0.0% | 2.2% | 55.0% | 3.68 | – | – |
| Kaempferide | 49% | 3.9% | 4.4% | 4.0% | 1.6% | 8.9% | 5.4% | 18.5% | 0.0% | 2.5% | 46.7% | 3.55 | – | – |
| O=c1cc(-c2ccc(O)c(O)c2)oc2c(O)c(O)ccc12 [7,8,3′,4′-Tetrahydroxyflavone] | 56% | 1.6% | 0.6% | 0.0% | 0.0% | 3.0% | 0.0% | 15.9% | 0.8% | 2.0% | 76.2% | 3.82 | – | – |
| O=C1C[C@@H](c2ccc(O)c(O)c2)Oc2cc(O)cc(O)c21 [Eriodictyol] | 43% | 3.1% | 1.6% | 1.1% | 0.0% | 5.0% | 0.4% | 20.2% | 0.0% | 1.9% | 66.7% | 3.60 | – | – |
